{
  "source": "patent US20080306133A1",
  "about": "“INTRANASAL ADMINISTRATION OF ASENAPINE AND PHARMACEUTICAL COMPOSITIONS THEREFOR” (priority 2007, published 2008)",
  "key": {"[1]": {"conditions": "oral dosage form; cited from earlier work"}, "[2]": {"conditions": "10 mg/day (5 mg twice daily); randomised, double-blind, placebo-controlled trials; cited from earlier work"}, "Solubility in water": {"assay": "Solubility in water", "format": "physicochemical", "conditions": "pH of about 4.0 to about 5.0"}},
  "note": "Counter-ions that a name gives are not always drawn.",
  "data": [
    {"smiles": "CN1C[C@@H]2c3ccccc3Oc3ccc(Cl)cc3[C@H]2C1", "note": "(relative stereo) [Asenapine, trans-5-chloro-2-methyl-2,3,3a,12b-tetrahydro-1H-dibenz[2,3:6,7]oxepino[4,5-c]pyrrole]", "values": [
      {"measurement": "bioavailability", "setting": "[1]", "result": "< 1", "unit": "%"},
      {"measurement": "efficacy in the treatment of schizophrenia as assessed by the Positive and Negative Symptoms Scale (PANSS)", "setting": "[2]", "result": "effective"}
    ]},
    {"smiles": "CN1CC2c3ccccc3Oc3ccc(Cl)cc3C2C1", "note": "(stereo not drawn) [Asenapine maleate]", "values": [
      {"measurement": "solubility", "setting": "Solubility in water", "result": "~10000", "unit": "µg/mL"}
    ]}
  ]
}
